# Laboratory results taken from patent US9603980B2, “Layer-by-layer stereocomplexed polymers as drug depot carriers or coatings in medical devices” (Cardinal Health Switzerland 515 GmbH, priority 2008, dated 2017).
# Columns and labels:
# [1] = Drug concentration in liquid formulations (liquid chromatography / HPLC assay); type: physicochemical
# From the text: In accordance with exemplary embodiments of the present invention, a series of liquid formulations were developed for the local or regional delivery of water insoluble compounds such as sirolimus and its analogs, including CCI-779, ABT-578 and everolimus, through weeping balloons and catheter injection needles. […] These liquid formulations increase the apparent solubility of the pharmacologically active but water insoluble compounds by two to four orders of magnitude as compared to the solubility limits of the compounds in water. These liquid formulations rely on the use of a very small amount of organic solvents such as Ethanol (typically less than two percent) and a larger amount of safe amphiphilic (of or relating to a molecule having a polar, water soluble group attached to a non-polar, water insoluble […]) excipients such as polyethylene glycol (PEG 200, PEG 400) and vitamin E TPGS to enhance the solubility of the compounds. These liquid formulations of highly water insoluble compounds are stable and readily flowable at room temperature. Certain excipients, such as Vitamin E TPGS and BHT may be utilized to enhance the storage stability of sirolimus compounds through their anti-oxidation properties. […]
# [2] = In vivo release kinetics from stent coatings, porcine pharmacokinetics studies
# From the text: The topcoat is two hundred micro grams.
# (§1) The basecoat is applied to Bx Velocity® stents and implanted into Yorkshire pigs.
# as §1
# [3] = tested on: human coronary artery smooth muscle cells; experiment: Anti-proliferative activity in non-synchronized cultured cells stimulated with two percent fetal bovine serum; type: cell-based
# From the text: The multiple curves represent various concentrations of mycophenolic acid ranging from zero to one thousand nanomolar concentrations.
# FIG. 58 illustrates, in graphical format, the anti-proliferative activity of cladribine in non-synchronized cultured human coronary artery smooth muscle cells stimulated with two percent fetal bovine serum.
# The multiple curves represent various concentrations of cladribine ranging from zero to nine hundred nanomolar concentrations.
# [4] = tested on: human smooth muscle cells; experiment: Cladribine Example: PDGF-stimulated cell proliferation, cell count on day six; type: cell-based; conditions: from IC50 values
# Protocol: To assess the ability of cladribine to prevent cell proliferation, human smooth muscle or endothelial cells (Clonetics, Walkersville, Md.) were seeded at a density of 2000 cells/cm^2 (approximately 3600 cells/well) into each well of 12-well plates and cultured with 1.5 ml of growth medium containing five percent fetal calf serum (FCS). After twenty-four hours, the growth medium was changed and fresh medium containing 10 ng/ml platelet-derived growth factor AB (PDGF AB; LIFE Technologies), as well as various concentrations of cladribine (0.001-10,000 nM) were added with triplicate wells. Medium was replaced with fresh cladribine-containing medium after three days. On day six, cells were detached by trypsinization to yield a cell suspension, lightly centrifuged to pellet and then counted manually using a Neubauer hemocytometer system. Cell viability was assessed by trypan blue exclusion.
# cell viability = experiment: Cell viability assay; type: cell-based
# From the text: (§2) The multiple curves represent various concentrations of topotecan ranging from zero to three hundred nanomolar concentrations.
# (§3) The multiple curves represent various concentrations of etoposide ranging from zero to eight hundred nanomolar concentrations.
# [5] = tested on: human coronary artery smooth muscle cells; experiment: Anti-proliferative activity in synchronized cultured cells stimulated with two percent fetal bovine serum; type: cell-based
# From the text: as §2, §3
# The multiple curves represent various concentrations of Panzem® ranging from zero to 100 micromolar concentrations.
# [6] = tested on: human coronary artery smooth muscle cells; experiment: Antiproliferative effects of PX867 on cultured cells; type: cell-based
# From the text: A PI3 kinase inhibitor can affect restinosis when administered by local or systemic delivery alone or in combination with sirolimus. FIGS. 87 and 88 illustrate the antiproliferative effects of PX867 on cultured human coronary artery smooth muscle cells alone (FIG. 87) or in combination with sirolimus (FIG. 88). […] Curve 8702 illustrates the percent inhibition for various concentrations. In FIG. 88, the six curves 8802, 8804, 8806, 8808, 8810 and 8812 represent various concentrations of PX867 with various concentrations of sirolimus. […] More specifically, curve 8812 illustrates the percent inhibition for a 240 nM PX-867 concentration. […] This may be compared to curve 8804 which represents a 15 nM PX-867 concentration. As one can see, the percent inhibition increases as the concentration of sirolimus increases. Accordingly, a potent PI3 kinase inhibitor, such as PX-867, can improve the inhibition of coronary artery smooth muscle cell proliferation either as a stand alone treatment or via combination with another restenotic agent, such as sirolimus.
# [7] = tested on: human coronary artery smooth muscle cell; experiment: MTS cytotoxicity assay; type: cell-based; conditions: concentrations up to 30,000.00 nanomolar (6.6 to 30,000.00 nanomolar tested)
# From the text: Typically, a control is utilized to determine baseline toxicity.
# [8] = In vitro release of sirolimus and cilostazol from single-layer coating; type: physicochemical; conditions: single-layer coating of FIG. 83
# [9] = Porcine drug elution PK study of dual drug eluting coating; type: in vivo; conditions: after eight (8) days of implantation, single-layer coating of FIG. 83
# From the text: Another critical parameter for the performance of the thrombus resistance of a device coated with cilostazol is the duration of the drug release from the coating. This is of particular significance in the two weeks after device implantation. In the porcine drug elution PK studies of the dual drug eluting coating, both cilostazol and sirolius were slowly released from the coating, resulting in a sustained drug release profile. The purpose of the porcine PK study is to assess the local pharmacokinetics of a drug eluting stent at a given implantation time. Normally three stents are implanted in three different coronary arteries in a pig for a given time point and then retrieved for total drug recovery analysis. The stents are retrieved at predetermined time points; namely, 1, 3 and 8 days. The stents are extracted and the total amount of drug remaining on the stents is determined by analysis utilizing HPLC (high performance liquid chromatography) for total drug amount. The difference between the original amount of drug on the stent and the amount of drug retrieved at a given time represents the amount of drug released in that period. The continuous release of drug into surrounding arterial tissue is what prevents the neointimal growth and restenosis in the coronary artery. A normal plot represents the percentage of total drug released (%, y-axis) vs. time of implantation (day, x-axis). […]
# [10] = tested on: human coronary artery smooth muscle cell; experiment: Inhibition of coronary artery smooth muscle cell proliferation by trichostatin A, in vitro cell culture study; type: cell-based
# From the text: FIG. 51 is a graph of the inhibition of coronary artery smooth muscle cells by trichostatin A in a cell culture study.
# tumor cell lines = conditions: cited from earlier work
structure (smiles),measurement,setting,value
CO[C@H]1C[C@@H]2CC[C@@H](C)[C@@](O)(O2)C(=O)C(=O)N2CCCC[C@H]2C(=O)O[C@H]([C@H](C)C[C@@H]2CC[C@@H](OC(=O)C(C)(CO)CO)[C@H](OC)C2)CC(=O)[C@H](C)/C=C(\C)[C@@H](O)[C@@H](OC)C(=O)[C@H](C)C[C@H](C)/C=C/C=C/C=C/1C [CCI-779],concentration in the final solution (HPLC assay),"[1]; ethanol less than two percent, Vitamin E TPGS, water",15000 µg/mL
"Nc1nc(Cl)nc2c1ncn2[C@H]1C[C@H](O)[C@@H](CO)O1 [Cladribine, 2-chlorodeoxyadenosine]","in vivo elution from polymeric stent coating, compared with co-loaded drug","[2]; Yorkshire pigs, EVA/BMA basecoat, BMA topcoat, Bx Velocity stents",elutes more rapidly than rapamycin
same,effect of addition to cells treated with rapamycin,[3]; cladribine 56.25 to 900 nanomolar,increases the percent inhibition of rapamycin alone
same,inhibition of human coronary artery smooth muscle cell proliferation,"[3]; non-synchronized cells, two percent fetal bovine serum",completely inhibits
same,potency as inhibitor of smooth muscle cells relative to endothelial cells,[4],approximately twice
"COc1cc([C@@H]2c3cc4c(cc3[C@@H](O[C@@H]3O[C@@H]5CO[C@@H](C)O[C@H]5[C@H](O)[C@H]3O)[C@H]3COC(=O)[C@H]23)OCO4)cc(OC)c1O [Etoposide, etoposide]",cytotoxicity,cell viability; concentrations up to ten micromolar,non-cytotoxic
same,effect of addition to cells treated with rapamycin,[5]; etoposide 255.7 to eight-hundred nanomolar,increases the percent inhibition of rapamycin alone
COC[C@H]1OC(=O)/C(=C\N2CCCC2)C2=C(O)C(=O)C3=C([C@H](OC(C)=O)C[C@]4(C)C(=O)CC[C@@H]34)[C@]21C [PX-867],inhibition of coronary artery smooth muscle cell proliferation,"[6]; PX867 alone, concentration of about 10^−6 (unit not given)",one hundred
same,combination with sirolimus,[6]; PX-867 15 to 240 nM with various concentrations of sirolimus,strong synergistic effect
"COc1cc2c(cc1O)CC[C@@H]1[C@@H]2CC[C@]2(C)[C@@H](O)CC[C@@H]12 [Panzem®, 2-methoxyestradiol]",human coronary artery smooth muscle cell survival,[7],do not reduce human coronary artery smooth muscle cell survival
same,effect of addition to cells treated with rapamycin,[5]; Panzem 0.813 to 100 micromolar,increases the percent of inhibition of rapamycin alone
same,inhibition of human coronary artery smooth muscle cell proliferation in vitro,[5]; agent alone,extremely effective inhibitor
"CC[C@@]1(O)C(=O)OCc2c1cc1n(c2=O)Cc2cc3c(CN(C)C)c(O)ccc3nc2-1 [Topotecan, topotecan]",cytotoxicity,cell viability; concentrations up to one micromolar,non-cytotoxic
same,effect of addition to cells treated with rapamycin,[5]; topotecan 18.8 to 300 nanomolar,increases the percent inhibition of rapamycin alone
"O=C1CCc2cc(OCCCCc3nnnn3C3CCCCC3)ccc2N1 [cilostazol, 6[4-(1-cyclohexyl-1H-tetrazol-5-yl)-butoxy]-3,4-dihydro-2-(1H)-quinolinone]",in vitro release,[8],~35%
same,drug remaining in the drug coating,[9],~80%
COc1c(C)c2c(c(O)c1C/C=C(\C)CCC(=O)O)C(=O)OC2 [mycophenolic acid],"in vivo release from basecoat, compared with co-loaded drug","[2]; porcine, EVA/BMA basecoat with rapamycin and mycophenolic acid 180 μg each, with or without BMA topcoat",elutes more completely over a shorter duration than the rapamycin
same,effect of addition on the anti-proliferative rapamycin dose response curve,"[3]; mycophenolic acid zero to one thousand nanomolar, leftward and upward shift",potentiates the anti-proliferative activity of rapamycin
CO[C@H]1C[C@@H]2CC[C@@H](C)[C@@](O)(O2)C(=O)C(=O)N2CCCC[C@H]2C(=O)O[C@H]([C@H](C)C[C@@H]2CC[C@@H](O)[C@H](OC)C2)CC(=O)[C@H](C)/C=C(\C)[C@@H](O)[C@@H](OC)C(=O)[C@H](C)C[C@H](C)/C=C/C=C/C=C/1C [rapamycin],"in vivo release rate, compared with co-loaded drug","[2]; porcine, PVDF basecoat with PVDF topcoat",slower release rate than that of mycophenolic acid
same,drug remaining in the drug coating,[9],~80%
same,concentration relative to the solubility of sirolimus in water,[1]; 4 mg/ml formulation,four hundred to about one thousand
CC(/C=C/C(=O)NO)=C\[C@@H](C)C(=O)c1ccc(N(C)C)cc1 [trichostatin A],inhibition of human coronary artery smooth muscle cell proliferation,[10],completely inhibit
same,IC50,[10]; read-out: anti-proliferative IC50,~6 nM
same,anti-proliferative IC50's,tumor cell lines,low nM range
